Reference: US8067640B2, “Method for the separation of intermediates which may be used for the preparation of escitalopram” (H. Lundbeck A/S, priority 2002, dated 2011)

Assay: Partition of compound A and compound B between aqueous layer and toluene layer in the presence of various acids
Settings: 40° C., 1 hour
Procedure: Thus-obtained mixed solvent was separated into aqueous layer and toluene layer, and then the concentrations of compound A and B in each layer were measured. Partition coefficients Ka or Kb are calculated according to the following equation. Ka=(Concentration of the compound A in aqueous layer)/(Concentration of the compound A in toluene layer) Kb=(Concentration of the compound B in aqueous layer)/(Concentration of the compound B in toluene layer)

Partition coefficient Ka (3-Phenylpropionic acid): 5.67
Partition coefficient Ka (4-Biphenylcarboxylic acid): 0.87
Partition coefficient Ka (Benzoic acid): 18.4
Partition coefficient Ka (Caproic acid): 5.04
Partition coefficient Ka (Cyclohexanecarboxylic acid): 3.89
Partition coefficient Ka (Isobutyric acid): 39.2
Partition coefficient Ka (Isophthalic acid): 7.43
Partition coefficient Ka (Isovaleric acid): 24.4
Partition coefficient Ka (Maleic acid): 31.1
Partition coefficient Ka (Malonic acid): 38.5
Partition coefficient Ka (Oxalic acid): 1092
Partition coefficient Ka (Phthalic acid): 20.8
Partition coefficient Ka (Pivalic acid): 9.03
Partition coefficient Ka (Salicylic acid): 13.0
Partition coefficient Ka (Succinic acid): 24.1
Partition coefficient Ka (Terephthalic acid): 16.8
Partition coefficient Ka (acid: None): 0.17
Partition coefficient Ka (m-Chlorobenzoic acid): 4.98
Partition coefficient Ka (m-Methoxybenzoic acid): 9.23
Partition coefficient Ka (m-Nitrobenzoic acid): 19.5
Partition coefficient Ka (m-Toluic acid): 6.00
Partition coefficient Ka (o-Chlorobenzoic acid): 22.8
Partition coefficient Ka (o-Methoxybenzoic acid): 27.1
Partition coefficient Ka (o-Nitrobenzoic acid): 30.7
Partition coefficient Ka (o-Toluic acid): 9.11
Partition coefficient Ka (p-Chlorobenzoic acid): 7.01
Partition coefficient Ka (p-Ethylbenzoic acid): 2.28
Partition coefficient Ka (p-Fluorobenzoic acid): 14.4
Partition coefficient Ka (p-Hydroxybenzoic acid): 70.8
Partition coefficient Ka (p-Methoxybenzoic acid): 12.3
Partition coefficient Ka (p-Toluenesulfonic acid): 164
Partition coefficient Ka (p-Toluic acid): 5.97
SMILES: CN(C)CCC[C@](O)(c1ccc(F)cc1)c1ccc(C#N)cc1CO [compound A, (S)-4-[4-dimethylamino-1-(4′-fluorophenyl)-1-hydroxybutyl]-3-hydroxymethylbenzonitrile]
